Measured values reported in patent publication US5250518A, “O-methyl derivatives of azithromycin A” (priority 1990, dated 1993).
In brackets after ≈: the same amount, converted by molar mass.

Columns and labels:
[1] = tested on: Klebsiella pneumoniae NCTC-10499; experiment: Antibacterial in vitro activity, tube dilution method (Table 1); type: cell-based; settings: NCTC10499, Brain hearth bouillon, 24 hours, 37° C.
Experimental: (§1) O-methyl derivatives of azithromycin A of the formulae (Ii)-(Il) and their pharmaceutically acceptable addition salts have a potent antimicrobial activity. The preliminary antibacterial in vitro activity of 6-O-methyl-azithromycin A (Ii) was determined on a series of gram-positiveand gram-negative test bacteria and clinical isolates in comparison with erythromycin A. The assessment was performed by the "tube dilution" method. In the investigation there were used 24-hours cultures in "brain hearth bouillon" of standard strains and freshly isolated strains from a clinical sample.
(§2) Substrate: Brain hearth bouillon
(§3) Incubation: 24 hours, 37° C.
(§4) MIC: Minimal Inhibitory Concentration (μg/mL)
(§5) MBC: Minimal Bactericidal Concentration (μg/mL)

[2] = tested on: Pseudomonas aeruginosa NCTC-10490; experiment: as above; type: cell-based; settings: NCTC10490, Brain hearth bouillon, 24 hours, 37° C.
Experimental: as §1, §2, §3, §4, §5

[3] = tested on: Staphilococcus aureus ATCC 6538-P; experiment: as above; type: cell-based; settings: Brain hearth bouillon, 24 hours, 37° C.
Experimental: as §1, §2, §3, §4, §5

[4] = tested on: Streptococcus faecalis ATCC-8043; experiment: as above; type: cell-based; settings: Enterococcus faecalis, ATCC8043, Brain hearth bouillon, 24 hours, 37° C.
Experimental: as §1, §2, §3, §4, §5

[5] = tested on: Escherichia coli ATCC 10536; experiment: as above; type: cell-based; settings: ATCC10536, Brain hearth bouillon, 24 hours, 37° C.
Experimental: (§6) The preliminary antibacterial in vitro activity of 6-O-methyl-azithromycin A (Ii) was determined on a series of gram-positiveand gram-negative test bacteria and clinical isolates in comparison with erythromycin A. The assessment was performed by the "tube dilution" method. In the investigation there were used 24-hours cultures in "brain hearth bouillon" of standard strains and freshly isolated strains from a clinical sample.

Sarcina lutea ATCC-9341 = experiment: as above; type: cell-based; settings: Micrococcus luteus, ATCC9341, Brain hearth bouillon, 24 hours, 37° C.
Experimental: as §6

[6] = tested on: Haemophylus influenzae 4028; experiment: Antibacterial in vitro activity against clinical isolates, tube dilution method (Table 2); type: cell-based; settings: clinical isolate, Brain hearth bouillon, 24 hours, 37° C.
Experimental: as §1, §2, §3, §4
(§7) MBC: Minimal Bactericidal Concentation (μg/mL)

[7] = tested on: Staphylococcus aureus 10097; experiment: as above; type: cell-based; settings: clinical isolate, Brain hearth bouillon, 24 hours, 37° C.
Experimental: as §1, §2, §3, §4, §7

[8] = tested on: Staphylococcus aureus 10099; experiment: as above; type: cell-based; settings: clinical isolate, Brain hearth bouillon, 24 hours, 37° C.
Experimental: as §1, §2, §3, §4, §7

[9] = tested on: Staphylococcus saprophyticus 3947; experiment: as above; type: cell-based; settings: clinical isolate, Brain hearth bouillon, 24 hours, 37° C.
Experimental: as §1, §2, §3, §4, §7

[10] = tested on: Streptococcus faecalis 10390; experiment: as above; type: cell-based; settings: Enterococcus faecalis, clinical isolate, Brain hearth bouillon, 24 hours, 37° C.
Experimental: as §1, §2, §3, §4, §7

[11] = tested on: Streptococcus pneumoniae 4050; experiment: as above; type: cell-based; settings: clinical isolate, Brain hearth bouillon, 24 hours, 37° C.
Experimental: as §1, §2, §3, §4, §7

ATCC 6538P = experiment: Antibacterial in vitro activity in comparison with azithromycin (Table 3); type: cell-based, Staphilococcus aureus; settings: for MIC: Brain hearth Bouillon, 24-48 hours, 37° C., inoculum 10^-5 -10^-6 cfu/mL, read-out: MIC
From the text: (§8) In Table 3 there are represented in vitro tests of 6-O-methyl- (Ii), 6,11-di-O-methyl- (Ij), 11-O-methyl- (Ik) and 6,11,4"-tri-O-methyl-azithromycin A (II) in comparison with azithromycin.

ATCC 10240 = experiment: as above; type: cell-based; settings: Brain hearth Bouillon, 24-48 hours, 37° C., inoculum 10^-5 -10^-6 cfu/mL
From the text: as §8

ATCC 8043 = experiment: as above; type: cell-based; settings: Staphylococcus faecalis, ATCC8043; Brain hearth Bouillon, 24-48 hours, 37° C., inoculum 10^-5 -10^-6 cfu/mL
From the text: as §8

[12] = tested on: Bacillus cereus NCTC 10320; experiment: as above; type: cell-based; settings: NCTC10320, Brain hearth Bouillon, 24-48 hours, 37° C., inoculum 10^-5 -10^-6 cfu/mL
From the text: as §8

[13] = tested on: Bacillus pumilus NCTC 8241; experiment: as above; type: cell-based; settings: NCTC8241, Brain hearth Bouillon, 24-48 hours, 37° C., inoculum 10^-5 -10^-6 cfu/mL
From the text: as §8

[14] = tested on: Bacillus subtilis NCTC 8241; experiment: as above; type: cell-based; settings: for MIC: Bacillus subtilis, NCTC8241, Brain hearth Bouillon, 24-48 hours, 37° C., inoculum 10^-5 -10^-6 cfu/mL
From the text: as §8

[15] = tested on: Corynebacterium xerosis NCTC 9755; experiment: as above; type: cell-based; settings: NCTC9755, Brain hearth Bouillon, 24-48 hours, 37° C., inoculum 10^-5 -10^-6 cfu/mL
From the text: as §8

[16] = tested on: Escherichia coli ATCC 10536; experiment: as above; type: cell-based; settings: ATCC10536, Brain hearth Bouillon, 24-48 hours, 37° C., inoculum 10^-5 -10^-6 cfu/mL
From the text: as §8

[17] = tested on: Pseudomonas aeruginosa NCTC 10490; experiment: as above; type: cell-based; settings: NCTC10490, Brain hearth Bouillon, 24-48 hours, 37° C., inoculum 10^-5 -10^-6 cfu/mL
From the text: as §8

Sarcina lutea ATCC 9341 = experiment: as above; type: cell-based; settings: for MIC: Micrococcus luteus, ATCC9341, Brain hearth Bouillon, 24-48 hours, 37° C., inoculum 10^-5 -10^-6 cfu/mL
From the text: as §8

[18] = tested on: Staphylococcus epidermidis ATCC 12228; experiment: as above; type: cell-based; settings: ATCC12228, Brain hearth Bouillon, 24-48 hours, 37° C., inoculum 10^-5 -10^-6 cfu/mL
From the text: as §8

[19] = tested on: gram-positive and gram-negative test bacteria and clinical isolates; experiment: Preliminary antibacterial in vitro activity, tube dilution method (Tables 1 and 2, summary); type: cell-based; settings: versus erythromycin A
Experimental: as §1

[20] = Biological activity (1 mg contains μg of azithromycin); settings: per 1 mg of (Ii)
[21] = tested on: standard bacterial strains; experiment: In vitro activity on the series of standard bacterial strains (Table 3, summary); type: cell-based; settings: versus azithromycin
Experimental: In Table 3 there are represented in vitro tests of 6-O-methyl- (Ii), 6,11-di-O-methyl- (Ij), 11-O-methyl- (Ik) and 6,11,4"-tri-O-methyl-azithromycin A (II) in comparison with azithromycin. […] Namely, the majority of the investigated bacterial strains was 2 to 4 times more sensitive in comparison with the parent antibiotic.
Substrate: Brain hearth Bouillon
Incubation: 24-48 hours, 37° C.
Inocculum; 10^-5 -10^-6 cfu/mL

[22] = read-out: MBC (Minimal Bactericidal Concentration)
[23] = read-out: MIC (Minimal Inhibitory Concentration)
[24] = read-out: MBC (Minimal Bactericidal Concentation)

In the case of CC[C@H]1OC(=O)[C@H](C)[C@@H](O[C@H]2C[C@@](C)(OC)[C@@H](O)[C@H](C)O2)[C@H](C)[C@@H](O[C@@H]2O[C@H](C)C[C@H](N(C)C)[C@H]2O)[C@](C)(OC)C[C@@H](C)CN(C)[C@H](C)[C@@H](O)[C@]1(C)O [Ii, 6-O-Methyl-azithromycin A], the MBC [1, 22] is reported as 50 µg/mL (≈ 65.5 µM), the MIC [1, 23] is reported as 12.5 µg/mL (≈ 16.4 µM) and the MBC [2, 22] is reported as over 50 µg/mL. For the same molecule, the MIC [2, 23] was over 50 µg/mL, the MBC [3, 22] was 0.4 µg/mL (≈ 0.524 µM) and the MIC [3, 23] was 0.2 µg/mL (≈ 0.262 µM). For the same molecule, the MBC [4, 22] was 0.4 µg/mL (≈ 0.524 µM), the MIC [4, 23] was 0.2 µg/mL (≈ 0.262 µM) and the MBC [5, 22] was 3.2 µg/mL (≈ 4.19 µM). For the same molecule, the MIC [5, 23] was 1.6 µg/mL (≈ 2.1 µM), the MBC (Sarcina lutea ATCC-9341; [22]) was 0.2 µg/mL (≈ 0.262 µM) and the MIC (Sarcina lutea ATCC-9341; [23]) was 0.1 µg/mL (≈ 0.131 µM). It also gave an MBC [6, 24] of 0.2 µg/mL (≈ 0.262 µM), an MIC [6, 23] of 0.05 µg/mL (≈ 0.0655 µM) and an MBC [7, 24] of 0.4 µg/mL (≈ 0.524 µM). It also gave an MIC [7, 23] of 0.05 µg/mL (≈ 0.0655 µM), an MBC [8, 24] of 0.1 µg/mL (≈ 0.131 µM) and an MIC [8, 23] of 0.05 µg/mL (≈ 0.0655 µM). For the same molecule, the MBC [9, 24] was 0.8 µg/mL (≈ 1.05 µM), the MIC [9, 23] was 0.4 µg/mL (≈ 0.524 µM) and the MBC [10, 24] was 3.1 µg/mL (≈ 4.06 µM). For the same molecule, the MIC [10, 23] was 0.8 µg/mL (≈ 1.05 µM), the MBC [11, 24] was 0.1 µg/mL (≈ 0.131 µM) and the MIC [11, 23] was 0.025 µg/mL (≈ 0.0328 µM). For the same molecule, the MIC (ATCC 6538P) was 0.39 µg/mL (≈ 0.511 µM), the “activity with respect to azithromycin (from MIC)” value (“activity … (from MIC)” below) (ATCC 6538P; printed as Micrococcus flavus ATCC 6538 P, versus azithromycin) was “four times as active” and the MIC (ATCC 10240) was 0.79 µg/mL (≈ 1.04 µM). The MIC (ATCC 8043) was 0.05 µg/mL (≈ 0.0655 µM), the MIC [12] was 0.78 µg/mL (≈ 1.02 µM) and the MIC [13] was 0.2 µg/mL (≈ 0.262 µM). For the same molecule, the “activity … (from MIC)” value ([14]; Bacillus subtilis NCTC 8241, versus azithromycin) was “twice as active”, the MIC [14] was 0.2 µg/mL (≈ 0.262 µM) and the MIC [15] was 12.5 µg/mL (≈ 16.4 µM). The MIC [16] was 3.12 µg/mL (≈ 4.1 µM), the MIC [17] was 100 µg/mL (≈ 131 µM) and the MIC (Sarcina lutea ATCC 9341) was 0.0125 µg/mL (≈ 0.0164 µM). The “activity … (from MIC)” value (Sarcina lutea ATCC 9341; Sarcina lutea ATCC 9341, versus azithromycin) was “twice as active”, the MIC [18] was 0.1 µg/mL (≈ 0.131 µM) and the “activity on the investigated strains in comparison with erythromycin A, in words” value [19] was “somewhat improved activity”. For the same molecule, the “Biological activity: 1 mg contains azithromycin” value [20] was 754 μg.
Work on CC[C@H]1OC(=O)[C@H](C)[C@@H](O[C@H]2C[C@@](C)(OC)[C@@H](O)[C@H](C)O2)[C@H](C)[C@@H](O[C@@H]2O[C@H](C)C[C@H](N(C)C)[C@H]2O)[C@](C)(O)C[C@@H](C)CN(C)[C@H](C)[C@@H](OC)[C@]1(C)O [Ik, 11-O-Methyl-azithromycin A] yielded an MIC (ATCC 6538P) of 0.2 µg/mL (≈ 0.262 µM), an MIC (ATCC 10240) of 0.1 µg/mL (≈ 0.131 µM) and an MIC (ATCC 8043) of 0.05 µg/mL (≈ 0.0655 µM). The MIC [12] was 0.1 µg/mL (≈ 0.131 µM), the MIC [13] was 0.05 µg/mL (≈ 0.0655 µM) and the MIC [14] was 0.1 µg/mL (≈ 0.131 µM). It also gave an MIC [15] of 1.56 µg/mL (≈ 2.04 µM), an MIC [16] of 0.78 µg/mL (≈ 1.02 µM) and an MIC [17] of 25 µg/mL (≈ 32.8 µM). For the same molecule, the MIC (Sarcina lutea ATCC 9341) was 0.0125 µg/mL (≈ 0.0164 µM), the MIC [18] was 0.1 µg/mL (≈ 0.131 µM) and the “activity in comparison with azithromycin, in words” value [21] was “significantly higher activity”.
